According to patent publication US11884671B2, “Purinone compounds and their use in treating cancer” (ASTRAZENECA AB, priority 2018, dated 2024):

Columns and labels:
[1] = target: DNAPK (Homo sapiens (Human), UniProt P78527); assay: DNAPK cellular potency assay (DNA-PK cell), pS2056-DNAPK ELISA in irradiated A549 cells; assay type: cell-based; conditions: 8 Gy radiation, arithmetic mean of two or more experiments, read-out: DNA-PK cell pIC50 (converted)
Experimental: The DNAPK cell ELISA assay was performed in the A549 cell line. A549 cells were cultured in cell media composed of MEM-F12 (Minimum Essential Medium F12 Sigma #D6421), 10% (v/v) Foetal Calf Serum and 1% (v/v) 200 mM L-Glutamine. […] The following day the Greiner ELISA plates were washed 3× with PBS-T and blocked with 3% BSA/PBS for 2 h, before a further 3× wash with PBS-T.
The cell plates were then incubated for 1 h at 37° C. before receiving a radiation dose of 8 Gy (XRAD 320, table height 65). The cells were incubated for a further 1 h before removal of cell media. […] Cell lysates ([…]) were transferred to the DNAPK antibody-coated ELISA plates using a CyBio Felix liquid handling platform, and ELISA plates were incubated at 4° C. overnight.
The following day, ELISA plates were washed 3× with PBS-T and dispensed with in-house pS2056-DNAPK antibody (0.5 μg/mL in 3% BSA/PBS) at 20 ul/well.
The fluorescence intensity of individual wells was determined using a PerkinElmer EnVision plate reader.
(§1) Data was analysed and IC50 values were calculated using Genedata Screener® software (Genedata, Inc., Basel, Switzerland).

[2] = target: Full length human DNAPK protein (Homo sapiens (Human), UniProt P78527); assay: DNAPK enzyme potency assay (DNA-PK enz), TR-FRET; assay type: biochemical; conditions: arithmetic mean of two or more experiments, 18 μM ATP; for IC50: read-out: DNA-PK enz pIC50 (converted)
Description: The following assays were used to measure the effects of the compounds described herein: a) DNAPK enzyme potency assay; b) DNAPK cellular potency assay. During the description of the assays, generally: • i. The following abbreviations have been used; DMSO=Dimethyl Sulphoxide; DTT=Dithiothreitol; EDTA=Ethylenediaminetetraacetic Acid, TR-FRET=Time Resolved Fluorescence Resonance Energy Transfer, ATP=Adenosine triphosphate, DTT=Dithiothreitol, DNA=Deoxyribonucleic acid, HEPES=(2-hydroxyethyl)-1-piperazineethanesulfonic acid • ii. […] Assay a): DNAPK Enzyme Potency Assay (DNA-PK Enz)
The inhibitory activity of compounds against DNAPK was determined by TR-FRET measuring a fluorescent labelled peptide substrate converting to a phosphorylated product. Fluorescently tagged peptide substrate were purchased from Thermo Fisher Scientific. 12 point half-log compound concentration-response curves, with a top concentration of 100 μM were generated from 10 mM stocks of compound solubilised in DMSO using an Echo 555 (Labcyte Inc., Sunnyvale, CA). All assays were preformed in white Greiner 1536 well low volume plates (Greiner Bio-One, UK), in a total reaction volume of 3 μL and 1% (v/v) final DMSO concentration. Enzymes and substrates were added separately to the compound plates and incubated at room temperature. The kinase reaction was then quenched by the addition of 3 μL of stop buffer. Stopped assay plates were read using a BMG Pherastar. IC50 values were calculated using a Genedata Screener® software (Genedata, Inc., Basel, Switzerland).
Full length human DNAPK protein was purified from HeLa cell extract by ion exchange. Initially DNAPK protein was incubated with compound for 30 minutes at room temperature in reaction buffer (50 mM Hepes pH 7.5, 0.01% Brij-35, 10 mM MgCl2, 1 mM EGTA, 1 mM DTT, […] Calf Thymus DNA). The reaction was then initiated by the addition of ATP and fluorescently tagged peptide substrate (Fluorescein-[…], Thermo Fisher Scientific). […] The reaction was incubated for a further hour and the plates were read on a BMG Pherastar.
as §1

Row | SMILES | IC50 [1] [nM] | DNA-PK enz pIC50 [2] | IC50 [2] [nM]
1 | CC(=O)N1CCC(n2c(=O)n(C)c3cnc(Nc4cc5cncnc5cc4C)nc32)CC1 [Example 3, 9-(1-acetylpiperidin-4-yl)-7-methyl-2-((7-methylquinazolin-6-yl)amino)-7,9-dihydro-8H-purin-8-one] | 63.1 | >10 | 
2 | CC(=O)N1CCC(n2c(=O)n(C)c3cnc(Nc4cc5cccnc5cc4C)nc32)CC1 [Example 51, 9-(1-acetylpiperidin-4-yl)-7-methyl-2-((7-methylquinolin-6-yl)amino)-7,9-dihydro-8H-purin-8-one] | 12.6 | >10 | 
3 | Cc1cc2nccnc2cc1Nc1ncc2c(n1)n([C@H]1CC[C@](C)(O)CC1)c(=O)n2C [Example 18, 9-((1r,4r)-4-hydroxy-4-methylcyclohexyl)-7-methyl-2-((7-methylquinoxalin-6-yl)amino)-7,9-dihydro-8H-purin-8-one] | 50.1 |  | 0.251
4 | Cc1cnc2cc(C)c(Nc3ncc4c(n3)n(C3CCOCC3)c(=O)n4C)cc2n1 [Example 34, 2-((3,7-dimethylquinoxalin-6-yl)amino)-7-methyl-9-(tetrahydro-2H-pyran-4-yl)-7,9-dihydro-8H-purin-8-one] | 31.6 |  | < 0.1
5 | CC(=O)N1CCC(n2c(=O)n(C)c3cnc(Nc4cc5ccnnc5cc4C)nc32)CC1 [Example 1, 9-(1-acetylpiperidin-4-yl)-7-methyl-2-((7-methylcinnolin-6-yl)amino)-7,9-dihydro-8H-purin-8-one] | 200 | 10.0 | 
6 | Cc1cc2nccnc2cc1Nc1ncc2c(n1)n([C@@H]1CCOC1)c(=O)n2C [Example 24, (R)-7-methyl-2-((7-methylquinoxalin-6-yl)amino)-9-(tetrahydrofuran-3-yl)-7,9-dihydro-8H-purin-8-one] | 79.4 | 9.1 | 
7 | Cc1cc2nnccc2cc1Nc1ncc2c(n1)n([C@H]1CC[C@@H](O)CC1)c(=O)n2C [Example 12, 9-((1s,4s)-4-hydroxycyclohexyl)-7-methyl-2-((7-methylcinnolin-6-yl)amino)-7,9-dihydro-8H-purin-8-one] | 20 | >10 | 
8 | Cc1cc2ncccc2cc1Nc1ncc2c(n1)n([C@@H]1CCN(C)C[C@@H]1F)c(=O)n2C [Example 46, 9-((3S,4R)-3-fluoro-1-methylpiperidin-4-yl)-7-methyl-2-((7-methylquinolin-6-yl)amino)-7,9-dihydro-8H-purin-8-one] | 631 | 8.1 | 
9 | Cc1cc2nccnc2cc1Nc1ncc2c(n1)n([C@H]1CC[C@@](C)(O)CC1)c(=O)n2C [Example 19, 9-((1s,4s)-4-hydroxy-4-methylcyclohexyl)-7-methyl-2-((7-methylquinoxalin-6-yl)amino)-7,9-dihydro-8H-purin-8-one] | 25.1 |  | 0.158
10 | Cc1cc2nnccc2cc1Nc1ncc2c(n1)n([C@H]1CCOC1)c(=O)n2C [Example 21, (S)-7-methyl-2-((7-methylcinnolin-6-yl)amino)-9-(tetrahydrofuran-3-yl)-7,9-dihydro-8H-purin-8-one] | 15.8 | >10 | 
11 | Cc1cnc2cc(Nc3ncc4c(n3)n(C3CCOCC3)c(=O)n4C)c(C)cc2n1 [Example 33, 2-((2,7-dimethylquinoxalin-6-yl)amino)-7-methyl-9-(tetrahydro-2H-pyran-4-yl)-7,9-dihydro-8H-purin-8-one] | 126 |  | 0.501
12 | Cc1cc2nccnc2cc1Nc1ncc2c(n1)n([C@@H]1CCCOC1)c(=O)n2C [Example 26, (R)-7-methyl-2-((7-methylquinoxalin-6-yl)amino)-9-(tetrahydro-2H-pyran-3-yl)-7,9-dihydro-8H-purin-8-one] | 39.8 | 9.8 | 
13 | Cc1cc2nnccc2cc1Nc1ncc2c(n1)n([C@H]1CC[C@H](O)CC1)c(=O)n2C [Example 7, 9-((1r,4r)-4-hydroxycyclohexyl)-7-methyl-2-((7-methylcinnolin-6-yl)amino)-7,9-dihydro-8H-purin-8-one] | 50.1 | >10 | 
14 | COc1ccnc2cc(C)c(Nc3ncc4c(n3)n([C@H]3CC[C@H](O)CC3)c(=O)n4C)cc12 [Example 9, 9-((1r,4r)-4-hydroxycyclohexyl)-2-((4-methoxy-7-methylquinolin-6-yl)amino)-7-methyl-7,9-dihydro-8H-purin-8-one] | 7.94 | >10 | 
15 | Cc1cc2ncccc2cc1Nc1ncc2c(n1)n([C@H]1CC[C@@H](O)CC1)c(=O)n2C [Example 11, 9-((1s,4s)-4-hydroxycyclohexyl)-7-methyl-2-((7-methylquinolin-6-yl)amino)-7,9-dihydro-8H-purin-8-one] | 20 |  | 0.158
16 | Cc1cc2nccnc2cc1Nc1ncc2c(n1)n([C@]1(C)CC[C@H](O)CC1)c(=O)n2C [Example 20, 9-((1s,4s)-4-hydroxy-1-methylcyclohexyl)-7-methyl-2-((7-methylquinoxalin-6-yl)amino)-7,9-dihydro-8H-purin-8-one] | 20 | 10.0 | 
17 | Cc1cc2ncccc2cc1Nc1ncc2c(n1)n(C1CCS(=O)(=O)CC1)c(=O)n2C [Example 35, 9-(1,1-dioxidotetrahydro-2H-thiopyran-4-yl)-7-methyl-2-((7-methylquinolin-6-yl)amino)-7,9-dihydro-8H-purin-8-one] | 39.8 | >10 | 
18 | COCCN1CCC(n2c(=O)n(C)c3cnc(Nc4cc5cccnc5cc4C)nc32)CC1 [Example 49, 9-(1-(2-methoxyethyl)piperidin-4-yl)-7-methyl-2-((7-methylquinolin-6-yl)amino)-7,9-dihydro-8H-purin-8-one] | 251 | 8.8 | 
19 | Cc1cc2ncccc2cc1Nc1ncc2c(n1)n([C@@H]1CCNC[C@@H]1F)c(=O)n2C [Example 38, 9-((3S,4R)-3-fluoropiperidin-4-yl)-7-methyl-2-((7-methylquinolin-6-yl)amino)-7,9-dihydro-8H-purin-8-one] | 3160 | 8.0 | 
20 | Cc1cc2nccnc2cc1Nc1ncc2c(n1)n([C@H]1CCCOC1)c(=O)n2C [Example 28, (S)-7-methyl-2-((7-methylquinoxalin-6-yl)amino)-9-(tetrahydro-2H-pyran-3-yl)-7,9-dihydro-8H-purin-8-one] | 15.8 | >10 | 
21 | Cc1cc2ncccc2cc1Nc1ncc2c(n1)n([C@H]1CC[C@](C)(N)CC1)c(=O)n2C [Example 40, 9-((1r,4r)-4-amino-4-methylcyclohexyl)-7-methyl-2-((7-methylquinolin-6-yl)amino)-7,9-dihydro-8H-purin-8-one] | 158 |  | 0.316
22 | Cc1cc2ncccc2cc1Nc1ncc2c(n1)n([C@H]1CC[C@H](O)CC1)c(=O)n2C [Example 6, 9-((1r,4r)-4-hydroxycyclohexyl)-7-methyl-2-((7-methylquinolin-6-yl)amino)-7,9-dihydro-8H-purin-8-one] | 5.01 | >10 | 
23 | Cc1cc2ncccc2cc1Nc1ncc2c(n1)n(C1CCN(C3COC3)CC1)c(=O)n2C [Example 47, 7-methyl-2-((7-methylquinolin-6-yl)amino)-9-(1-(oxetan-3-yl)piperidin-4-yl)-7,9-dihydro-8H-purin-8-one] | 200 | 9.0 | 
24 | CC(=O)N1CCC(n2c(=O)n(C)c3cnc(Nc4cc5ncc(C)nc5cc4C)nc32)CC1 [Example 4, 9-(1-acetylpiperidin-4-yl)-2-((2,7-dimethylquinoxalin-6-yl)amino)-7-methyl-7,9-dihydro-8H-purin-8-one] | 251 | 9.0 | 
